The text below walks through data of patent US4100276A, “Fusidic acid derivatives” (priority 1975, dated 1978).

Converted amounts (≈) assume the structure as drawn. Counter-ions that a name gives are not always drawn. Like-named read-outs stand apart in the source and are kept apart here. A value given as a limit tells only on which side of the number the result lay.

Assay [1] has as its system Streptococcus pyogenes Leo EC. Put plainly: In vitro activity, concentration required for 50% inhibition (Table A). The format is cell-based.
Assay [2] has as its system Streptococcus sp. Leo EG2. The assay is described as above. The format is cell-based.
Assay [3] relates to Staphylococcus aureus Leo CC178B. The description is as above. Format: cell-based. As to conditions: for IC50: LEOCC178B, read-out: Concentration required for 50% inhibition (IC50).
Assay [4] relates to Staph. aureus, Leo CC178H2 (fusidic acid resistant strain). The assay is described as above. The format is cell-based. The settings on record: Staphylococcus aureus, read-out: Concentration required for 50% inhibition (IC50).
Assay [5] relates to Staph. aureus Leo CJ145. The description is as above. The format is cell-based. The settings on record: for IC50: Staphylococcus aureus.
In assay [6] the test system is Bacteroides fragilis, Leo JA2. The assay is described as above. Format: cell-based.
Assay [7] concerns Corynebact. acnes Leo FN. Described as above. Format: cell-based, Corynebacterium acnes. The settings on record: for IC50: Cutibacterium acnes.
Assay [8] has as its system Staphylococcus aureus. Put plainly: In vitro effect of combination with dihydro-fusidic acid, viable counts (Example 46). The format is cell-based. The settings on record: tubes a, b 10 μg/ml, tube c 5 + 5 μg/ml. The method, then: In vitro-effect of the combination of dihydro-fusidic acid and 3α,11α-dihydroxy-16β-phenylthio-fusida-13(17),24-dien-21- oic acid
To three tubes containing NIH broth was added:
a. The sodium salt of dihydro-fusidic acid (10 μg/ml).
b. The sodium salt of 3α,11α-dihydroxy-16-phenylthiofusida-13(17),24-dien-21-oic acid (10 μg/ml).
c. A mixture of the sodium salts of dihydro-fusidic acid (5 μg/ml) and 3α,11α-dihydroxy-16-phenylthiofusida-13(17),24-dien-21-oic acid (5 μg/ml).
The tubes were inoculated with Staphylococcus aureus to give 5.2 × 10^5 organisms per ml, incubated at 37° C for 96 hours, and the viable counts were determined.
A fourth tube was treated similarly without addition of any of the antibiotics and used as a control: […]

The mark [9] stands for this setting: Streptococcus pyogenes Leo EC, read-out: Concentration required for 50% inhibition (IC50).
Where [10] appears, read: Streptococcus sp. Leo EG2, read-out: Concentration required for 50% inhibition (IC50).
Setting [11] is: Staphylococcus aureus Leo CC178B.
Setting [12] is: LEOCJ145, Staph. aureus Leo CJ145, read-out: Concentration required for 50% inhibition (IC50).
The mark [13] stands for this setting: LEOJA2, Bacteroides fragilis Leo JA2, read-out: Concentration required for 50% inhibition (IC50).
Setting [14] is: Corynebact. acnes Leo FN, read-out: Concentration required for 50% inhibition (IC50).
[15] abbreviates: Streptococcus pyogenes, read-out: Concentration required for 50% inhibition (IC50), Streptococcus pyogenes Leo EC.
[16] abbreviates: Streptococcus, read-out: Concentration required for 50% inhibition (IC50), Streptococcus sp. Leo EG2.
The mark [17] stands for this setting: Bacteroides fragilis, LEOJA2, read-out: Concentration required for 50% inhibition (IC50), Bacteroides fragilis Leo JA2.

In the case of `CC(C)=CCCC(C(=O)O)C1=C2C[C@@H](O)[C@H]3[C@@]4(C)CC[C@@H](O)[C@@H](C)[C@@H]4CC[C@]3(C)[C@@]2(C)C[C@@H]1SCc1ccco1` (some centres unmarked) [Example 23], the IC50 was determined as 0.63 µg/mL (≈ 1.1 µM) in assay [1] (setting [9]); 1.6 µg/mL (≈ 2.8 µM) in assay [2] (setting [10]); 1.6 µg/mL (≈ 2.8 µM) in assay [3] (setting [11]); 1.6 µg/mL (≈ 2.8 µM) in assay [4]; 7.9 µg/mL (≈ 13.8 µM) in assay [5] (setting [12]); 16 µg/mL (≈ 28 µM) in assay [6] (setting [13]). In addition, in assay [7] (setting [14]), the IC50 worked out at 0.79 µg/mL (≈ 1.38 µM).
As for `C=CCS[C@H]1C[C@@]2(C)C(=C1C(CCC=C(C)C)C(=O)O)C[C@@H](O)[C@H]1[C@@]3(C)CC[C@@H](O)[C@@H](C)[C@@H]3CC[C@@]12C` (some centres unmarked) [Example 14], the IC50 came out at 0.32 µg/mL (≈ 0.603 µM) in assay [1] (setting [9]); 1.6 µg/mL (≈ 3.01 µM) in assay [2] (setting [10]); 1.6 µg/mL (≈ 3.01 µM) in assay [3] (setting [11]); 1.6 µg/mL (≈ 3.01 µM) in assay [4]; 5 µg/mL (≈ 9.42 µM) in assay [5] (setting [12]); 4 µg/mL (≈ 7.54 µM) in assay [6] (setting [13]). Besides, the IC50 in assay [7] (setting [14]) came to 1.6 µg/mL (≈ 3.01 µM).
Consider `CC(C)=CCCC(C(=O)O)C1=C2C[C@@H](O)[C@H]3[C@@]4(C)CC[C@@H](O)[C@@H](C)[C@@H]4CC[C@]3(C)[C@@]2(C)C[C@@H]1SC(C)C` (stereo partly drawn) [Example 31C, 3α,11α-dihydroxy-16β-isopropylthiofusida-13(17),24-dien-21-oic acid], for which the “Concentration required for 50% inhibition (IC50)” value in assay [1] (Streptococcus pyogenes Leo EC) came to 0.5 µg/mL; in assay [2] (Streptococcus sp. Leo EG2) it was 0.63 µg/mL; in assay [3] (setting [11]), 1.6 µg/mL; in assay [5] (Staph. aureus Leo CJ145), 4.0 µg/mL; in assay [6] (Bacteroides fragilis Leo JA2), 6.3 µg/mL; in assay [7] (Corynebact. acnes Leo FN), 0.63 µg/mL.
For the molecule `CC(C)CCCC(C(=O)O)C1=C2C[C@@H](O)[C@H]3[C@@]4(C)CC[C@@H](O)[C@@H](C)[C@@H]4CC[C@]3(C)[C@@]2(C)C[C@@H]1SC(C)C` (stereo partly drawn) [Example 26, 3α,11α-Dihydroxy-16β-isopropylthiofusida-13(17)-en-21-oic acid sodium salt], the IC50 in assay [1] (setting [15]) amounted to 0.5 µg/mL; in assay [2] (setting [16]) it was 0.5 µg/mL; in assay [3] (Staphylococcus aureus) it was 1.6 µg/mL; in assay [4] it was 1.6 µg/mL; in assay [6] (setting [17]), 20 µg/mL; in assay [7] (read-out: Concentration required for 50% inhibition (IC50), Corynebact. acnes Leo FN), 0.5 µg/mL.
As to `CC(C)CCCC(C(=O)O)C1=C2C[C@@H](O)[C@H]3[C@@]4(C)CC[C@@H](O)[C@@H](C)[C@@H]4CC[C@]3(C)[C@@]2(C)C[C@@H]1Sc1ccccc1` (stereo partly drawn) [Example 8, 3α,11α-Dihydroxy-16β-phenylthiofusida-13(17)-en-21-oic acid, sodium salt], the IC50 was 0.5 µg/mL in assay [1] (setting [9]); 0.5 µg/mL in assay [2] (setting [10]); 2 µg/mL in assay [3] (setting [11]); 2.5 µg/mL in assay [4]; greater than 100 µg/mL in assay [6] (setting [13]); 1.6 µg/mL in assay [7] (setting [14]).
For `CC(C)=CCCC(C(=O)O)C1=C2C[C@@H](O)[C@H]3[C@@]4(C)CC[C@@H](O)[C@@H](C)[C@@H]4CC[C@]3(C)[C@@]2(C)C[C@@H]1SC(C)C` (stereo partly drawn) [Example 27, 3α,11α-Dihydroxy-16β-isopropylthiofusida-13(17), 24-dien-21-oic acid], the IC50 in assay [1] (setting [15]) was 0.63 µg/mL (≈ 1.18 µM); in assay [2] (setting [16]), 1 µg/mL (≈ 1.88 µM); in assay [3] (Staphylococcus aureus), 1.6 µg/mL (≈ 3 µM); in assay [4], 1.6 µg/mL (≈ 3 µM); in assay [5] (LEOCJ145, read-out: Concentration required for 50% inhibition (IC50), Staph. aureus Leo CJ145), 4 µg/mL (≈ 7.51 µM); in assay [6] (setting [17]), 10 µg/mL (≈ 18.8 µM). Further, the “Concentration required for 50% inhibition (IC50)” value in assay [7] (Corynebact. acnes Leo FN) came out at 0.63 µg/mL.
For the molecule `CC(=O)O[C@H]1C[C@@]2(C)[C@@H](C[C@@H](O)[C@H]3[C@@]4(C)CC[C@@H](O)[C@@H](C)[C@@H]4CC[C@@]32C)/C1=C(\CCCC(C)C)C(=O)O` [sodium salt of dihydro-fusidic acid, reference compound], in assay [8] (37° C, inoculum 5.2 × 10^5), the “Viable counts after 6 1/2 hours” value is reported as 3.1 × 10^5 organisms per ml, the “Viable counts after 2 hours” value is 4.1 × 10^5 organisms per ml and the “Viable counts after 24 hours” value is 6.3 × 10^6 organisms per ml. In addition, the “Resistance of surviving organisms to the compound / development of resistance” value in assay [8] (96 hours) is “resistant to dihydro-fusidic acid”.
As to `CC(C)=CCCC(C(=O)O)C1=C2C[C@@H](O)[C@H]3[C@@]4(C)CC[C@@H](O)[C@@H](C)[C@@H]4CC[C@]3(C)[C@@]2(C)C[C@@H]1Sc1ccc(Br)cc1` (stereo partly drawn) [Example 2, 3α,11α-dihydroxy-16β--(4'-bromophenylthio)fusida-13(17),24-dien-21-oic acid sodium salt], the IC50 in assay [1] (setting [9]) came out at 0.2 µg/mL; in assay [2] (setting [10]) it was 0.5 µg/mL; in assay [3] (setting [11]) it was 6.3 µg/mL; in assay [4], 10 µg/mL; in assay [5] (setting [12]), 100 µg/mL; in assay [6] (setting [13]), 13 µg/mL. Moreover, the IC50 in assay [7] (setting [14]) is 0.63 µg/mL.
For `CC(C)=CCCC(C(=O)O)C1=C2C[C@@H](O)[C@H]3[C@@]4(C)CC[C@@H](O)[C@@H](C)[C@@H]4CC[C@]3(C)[C@@]2(C)C[C@@H]1SC(C)C` (stereo partly drawn) [Example 31D, 3α,11α-dihydroxy-16β-isopropylthiofusida-13(17),24-dien-21-oic acid], the “Concentration required for 50% inhibition (IC50)” value in assay [1] (Streptococcus pyogenes Leo EC) is 0.63 µg/mL; in assay [2] (Streptococcus sp. Leo EG2) it was 0.79 µg/mL; in assay [3] (setting [11]), 1.6 µg/mL; in assay [5] (Staph. aureus Leo CJ145), 5.0 µg/mL; in assay [7] (Corynebact. acnes Leo FN), 1.6 µg/mL.
As to `CC(C)=CCCC(C(=O)O)C1=C2C[C@@H](O)[C@H]3[C@@]4(C)CC[C@@H](O)[C@@H](C)[C@@H]4CC[C@]3(C)[C@@]2(C)C[C@@H]1SC(C)(C)C` (some centres unmarked) [Example 13], the IC50 worked out at 0.63 µg/mL (≈ 1.15 µM) in assay [1] (setting [9]); 1.6 µg/mL (≈ 2.93 µM) in assay [2] (setting [10]); 1.6 µg/mL (≈ 2.93 µM) in assay [3] (setting [11]); 1.6 µg/mL (≈ 2.93 µM) in assay [4]; 7.9 µg/mL (≈ 14.4 µM) in assay [5] (setting [12]); 2 µg/mL (≈ 3.66 µM) in assay [6] (setting [13]). Moreover, the IC50 in assay [7] (setting [14]) stood at 0.5 µg/mL (≈ 0.914 µM).
